*1 amine or outer side, *2 acyl side, *3 side chain or, on linkers, in order; H or OH if unused. Where a SMILES comes first, the peptide text is derived from it. Bridges are numbered along the chain shown (N, C = ends). [ ]: non-standard residue; d: D form. The star is where a group is joined. Phe(4-COOH) = N[C@@H](Cc1ccc(C(=O)O)cc1)C(=O)O; Bip = N[C@@H](Cc1ccc(-c2ccccc2)cc1)C(=O)O; Phe(4-CN) = N#Cc1ccc(C[C@H](N)C(=O)O)cc1; Phe(3-Me) = Cc1cccc(C[C@H](N)C(=O)O)c1; γGlu = O=C(O)[C@H](CCC(=O)[*:2])N[*:1]; Val(3-OH) = CC(C)(O)[C@H](N)C(=O)O; 4Pal = N[C@@H](Cc1ccncc1)C(=O)O; Cha = N[C@@H](CC1CCCCC1)C(=O)O; Carboxymethyl = O=C(O)C*; NMeA = CN[C@@H](C)C(=O)O; Aun = NCCCCCCCCCCC(=O)O; Dab = NCC[C@H](N)C(=O)O; AEEA = NCCOCCOCC(=O)O

The first experiment deals with T1, PD-1/PD-L1 interaction (PE-labeled human PD-L1-Ig binding to Jurkat cell line over-expressing human PD-1) (Homo sapiens, UniProt Q15116).
T1 construct: expressed in transfected cells; host or cells: Jurkat
T1 sequence (Q15116 25-288): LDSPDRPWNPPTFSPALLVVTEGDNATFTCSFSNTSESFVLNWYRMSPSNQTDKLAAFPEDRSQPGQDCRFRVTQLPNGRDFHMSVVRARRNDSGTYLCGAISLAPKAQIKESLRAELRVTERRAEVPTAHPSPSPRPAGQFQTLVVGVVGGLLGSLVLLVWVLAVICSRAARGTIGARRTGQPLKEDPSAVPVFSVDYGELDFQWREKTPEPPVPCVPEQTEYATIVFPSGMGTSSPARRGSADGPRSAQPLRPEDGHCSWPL
Kind of experiment: Jurkat-PD-1 Cell Binding High-Content Screening Assay (CBA). The conditions noted are these: Jurkat-hPD-1 cells, PE-labeled PD-L1-Ig 20 nM final; read-out: Jurkat HPD1 PDL1 IC50. The procedure:
Example 2: Jurkat-PD-1 Cell Binding High-Content Screening Assay (CBA)
Phycoerythrin (PE) was covalently linked to the Ig epitope tag of human PD-L1-Ig and fluorescently-labeled PD-L1-Ig was used for binding studies with a Jurkat cell line over-expressing human PD-1 (Jurkat-PD-1). Briefly, 8×10^3 Jurkat-hPD-1 cells were seeded into 384 well plates in 20 μl of DMEM supplemented with 10% fetal calf serum. 100 nl of compound was added to cells followed by incubation at 37° C. for 2 hours. Then, 5 μl of PE-labeled PD-L1-Ig (20 nM final), diluted in DMEM supplemented with 10% fetal calf serum. After 1 hour incubation, cells were fixed with […] in dPBS containing 10 μg/ml Hoechst 33342 and then washed 3× in 100 μl dPBS. Data was collected and processed using a Cell Insight NXT High Content Imager and associated software.
In the case of `CC(C)C[C@@H]1NC(=O)[C@H](Cc2c[nH]c3ccccc23)NC(=O)[C@H](CC(=O)O)NC(=O)[C@H](Cc2ccc(C(=O)O)cc2)NC(=O)[C@H](Cc2ccc(OCC(=O)O)cc2)NC(=O)CSC[C@@H](C(=O)N[C@@H](CCN)C(=O)NCCCCCCCCCCC(=O)O)NC(=O)[C@H](CCC(N)=O)NC(=O)[C@H](C(C)C)NC(=O)[C@H](CC2CCCCC2)NC(=O)[C@H](CCN)NC(=O)[C@@H](CC(C)C)NC(=O)[C@H](C)N(C)C(=O)[C@H](C(C)C)NC(=O)[C@H](Cc2ccc(-c3ccccc3)cc2)NC1=O` [Example 1000] ({CH2CO}-Y(Carboxymethyl)[Phe(4-COOH)]DWL[Bip]V[NMeA][dL][Dab][Cha]VQC[Dab][Aun]-OH; thioether N-14), the IC50 was determined as 23.4 nM.
As for `Cc1cccc(C[C@@H]2NC(=O)[C@H](CC(=O)O)NC(=O)[C@H](Cc3ccc(C(=O)O)cc3)NC(=O)[C@H](Cc3ccc(OCC(=O)O)cc3)NC(=O)CSC[C@@H](C(=O)N[C@@H](CC(=O)O)C(=O)NCCCCCCCCCCC(=O)O)NC(=O)[C@H](CO)NC(=O)[C@H](C(C)C)NC(=O)[C@H](CC(C)C)NC(=O)[C@H](CC(N)=O)NC(=O)[C@@H](CC(C)C)NC(=O)[C@H](C)N(C)C(=O)[C@H](C(C)C)NC(=O)[C@H](Cc3ccc(-c4ccccc4)cc3)NC(=O)[C@H](CC(C)C)NC2=O)c1` [Example 1001] ({CH2CO}-Y(Carboxymethyl)[Phe(4-COOH)]D[Phe(3-Me)]L[Bip]V[NMeA][dL]NLVSCD[Aun]-OH; thioether N-14 (inferred)), the IC50 turned out to be 92.1 nM.
Consider `Cc1cccc(C[C@@H]2NC(=O)[C@H](CC(=O)O)NC(=O)[C@H](Cc3ccc(C(=O)O)cc3)NC(=O)[C@H](Cc3ccc(C#N)cc3)NC(=O)CSC[C@@H](C(=O)N[C@@H](CCN)C(=O)NCCCCCCCCCCC(=O)O)NC(=O)[C@H](CO)NC(=O)[C@H](C(C)(C)O)NC(=O)[C@H](CC3CCCCC3)NC(=O)[C@H](CCN)NC(=O)[C@@H](CC(C)C)NC(=O)[C@H](C)N(C)C(=O)[C@H](Cc3ccc(OCC(=O)O)cc3)NC(=O)[C@H](Cc3ccc(-c4ccccc4)cc3)NC(=O)[C@H](Cc3ccc(OCC(=O)O)cc3)NC2=O)c1` [Example 1002] ({CH2CO}-[Phe(4-CN)][Phe(4-COOH)]D[Phe(3-Me)]Y(Carboxymethyl)[Bip]Y(Carboxymethyl)[NMeA][dL][Dab][Cha][Val(3-OH)]SC[Dab][Aun]-OH; thioether N-14), for which the IC50 was 11 nM.
Still for that read-out and setting: the value for `Cc1cccc(C[C@@H]2NC(=O)[C@H](CC(=O)O)NC(=O)[C@H](Cc3ccc(C(=O)O)cc3)NC(=O)[C@H](Cc3ccc(OCC(=O)O)cc3)NC(=O)CSC[C@@H](C(=O)N[C@@H](CCC(=O)O)C(=O)NCCCCCCCCCCC(=O)O)NC(=O)[C@H](CO)NC(=O)[C@H](C(C)C)NC(=O)[C@H](CC(C)C)NC(=O)[C@H](CC(N)=O)NC(=O)[C@@H](CC(C)C)NC(=O)[C@H](C)N(C)C(=O)[C@H](C(C)C)NC(=O)[C@H](Cc3ccc(-c4ccccc4)cc3)NC(=O)[C@H](CC(C)C)NC2=O)c1` [Example 1003] ({CH2CO}-Y(Carboxymethyl)[Phe(4-COOH)]D[Phe(3-Me)]L[Bip]V[NMeA][dL]NLVSCE[Aun]-OH; thioether N-14) was 20.1 nM; that for `Cc1cccc(C[C@@H]2NC(=O)[C@H](CC(=O)O)NC(=O)[C@H](Cc3ccc(C(=O)O)cc3)NC(=O)[C@H](Cc3ccc(OCC(=O)O)cc3)NC(=O)CSC[C@@H](C(=O)NCC(=O)N[C@@H](CCC(=O)O)C(=O)NCCCCCCCCCCC(=O)O)NC(=O)[C@H](CO)NC(=O)[C@H](C(C)C)NC(=O)[C@H](CC(C)C)NC(=O)[C@H](CC(N)=O)NC(=O)[C@@H](CC(C)C)NC(=O)[C@H](C)N(C)C(=O)[C@H](C(C)C)NC(=O)[C@H](Cc3ccc(-c4ccccc4)cc3)NC(=O)[C@H](CC(C)C)NC2=O)c1` [Example 1005] ({CH2CO}-Y(Carboxymethyl)[Phe(4-COOH)]D[Phe(3-Me)]L[Bip]V[NMeA][dL]NLVSCGE[Aun]-OH; thioether N-14) was 49.5 nM; that for `Cc1cccc(C[C@@H]2NC(=O)[C@H](CC(=O)O)NC(=O)[C@H](Cc3ccc(C(=O)O)cc3)NC(=O)[C@H](Cc3ccc(OCC(=O)O)cc3)NC(=O)CSC[C@@H](C(=O)NCCCCCCCCCCC(=O)O)NC(=O)[C@H](CO)NC(=O)[C@H](C(C)C)NC(=O)[C@H](CC(C)C)NC(=O)[C@H](CC(N)=O)NC(=O)[C@@H](CC(C)C)NC(=O)[C@H](C)N(C)C(=O)[C@H](C(C)C)NC(=O)[C@H](Cc3ccc(-c4ccccc4)cc3)NC(=O)[C@H](CC(C)C)NC2=O)c1` [Example 1007] ({CH2CO}-Y(Carboxymethyl)[Phe(4-COOH)]D[Phe(3-Me)]L[Bip]V[NMeA][dL]NLVSC[Aun]-OH; thioether N-14) was 111 nM.
For `Cc1cccc(C[C@@H]2NC(=O)[C@H](CC(=O)O)NC(=O)[C@H](Cc3ccc(C(=O)O)cc3)NC(=O)[C@H](Cc3ccc(OCC(=O)O)cc3)NC(=O)CSC[C@@H](C(=O)NCC(=O)NCCOCCOCC(=O)NCCCCCCCCCCC(=O)O)NC(=O)[C@H](CO)NC(=O)[C@H](C(C)C)NC(=O)[C@H](CC(C)C)NC(=O)[C@H](CC(N)=O)NC(=O)[C@@H](CC(C)C)NC(=O)[C@H](C)N(C)C(=O)[C@H](C(C)C)NC(=O)[C@H](Cc3ccc(-c4ccccc4)cc3)NC(=O)[C@H](CC(C)C)NC2=O)c1` [Example 1011] ({CH2CO}-Y(Carboxymethyl)[Phe(4-COOH)]D[Phe(3-Me)]L[Bip]V[NMeA][dL]NLVSCG[AEEA][Aun]-OH; thioether N-14), the IC50 is 24.6 nM.
With `Cc1cccc(C[C@@H]2NC(=O)[C@H](CC(=O)O)NC(=O)[C@H](Cc3ccc(C(=O)O)cc3)NC(=O)[C@H](Cc3ccc(OCC(=O)O)cc3)NC(=O)CSC[C@@H](C(=O)NCC(=O)N[C@@H](CCC(=O)O)C(=O)NCCOCCOCC(=O)N[C@@H](CCC(=O)NCCCCCCCCCCC(=O)O)C(=O)O)NC(=O)[C@H](CO)NC(=O)[C@H](C(C)C)NC(=O)[C@H](CC(C)C)NC(=O)[C@H](CC(N)=O)NC(=O)[C@@H](CC(C)C)NC(=O)[C@H](C)N(C)C(=O)[C@H](C(C)C)NC(=O)[C@H](Cc3ccc(-c4ccccc4)cc3)NC(=O)[C@H](CC(C)C)NC2=O)c1` [Example 1013] ({CH2CO}-Y(Carboxymethyl)[Phe(4-COOH)]D[Phe(3-Me)]L[Bip]V[NMeA][dL]NLVSCGE[AEEA][γGlu][Aun]-OH; thioether N-14), the IC50 turned out to be 36.5 nM.
Consider `Cc1cccc(C[C@@H]2NC(=O)[C@H](CC(=O)O)NC(=O)[C@H](Cc3ccc(C(=O)O)cc3)NC(=O)[C@H](Cc3ccc(OCC(=O)O)cc3)NC(=O)CSC[C@@H](C(=O)NCC(=O)N[C@@H](CCC(=O)NCCOCCOCC(=O)N[C@@H](CC(=O)O)C(=O)NCCCCCCCCCCC(=O)O)C(=O)O)NC(=O)[C@H](CO)NC(=O)[C@H](C(C)C)NC(=O)[C@H](CC(C)C)NC(=O)[C@H](CC(N)=O)NC(=O)[C@@H](CC(C)C)NC(=O)[C@H](C)N(C)C(=O)[C@H](C(C)C)NC(=O)[C@H](Cc3ccc(-c4ccccc4)cc3)NC(=O)[C@H](CC(C)C)NC2=O)c1` [Example 1014] ({CH2CO}-Y(Carboxymethyl)[Phe(4-COOH)]D[Phe(3-Me)]L[Bip]V[NMeA][dL]NLVSCG[γGlu][AEEA]D[Aun]-OH; thioether N-14), for which the IC50 was determined as 48.5 nM.
On to `Cc1cccc(C[C@@H]2NC(=O)[C@H](CC(=O)O)NC(=O)[C@H](Cc3ccc(C(=O)O)cc3)NC(=O)[C@H](Cc3ccc(OCC(=O)O)cc3)NC(=O)CSC[C@@H](C(=O)NCC(=O)N[C@@H](CCC(=O)NCCOCCOCC(=O)N[C@@H](CCC(=O)O)C(=O)NCCCCCCCCCCC(=O)O)C(=O)O)NC(=O)[C@H](CO)NC(=O)[C@H](C(C)C)NC(=O)[C@H](CC(C)C)NC(=O)[C@H](CC(N)=O)NC(=O)[C@@H](CC(C)C)NC(=O)[C@H](C)N(C)C(=O)[C@H](C(C)C)NC(=O)[C@H](Cc3ccc(-c4ccccc4)cc3)NC(=O)[C@H](CC(C)C)NC2=O)c1` [Example 1015] ({CH2CO}-Y(Carboxymethyl)[Phe(4-COOH)]D[Phe(3-Me)]L[Bip]V[NMeA][dL]NLVSCG[γGlu][AEEA]E[Aun]-OH; thioether N-14), for which the IC50 was 54.1 nM.
Take `Cc1cccc(C[C@@H]2NC(=O)[C@H](CC(=O)O)NC(=O)[C@H](Cc3ccncc3)NC(=O)[C@H](Cc3ccc(OCC(=O)O)cc3)NC(=O)CSC[C@@H](C(=O)NCC(=O)N[C@@H](CCC(=O)NCCOCCOCC(=O)N[C@@H](CCC(=O)NCCOCCOCC(=O)NCCCCCCCCCCC(=O)O)C(=O)O)C(=O)O)NC(=O)[C@H](CO)NC(=O)[C@H](C(C)C)NC(=O)[C@H](CC(C)C)NC(=O)[C@H](CC(N)=O)NC(=O)[C@@H](CC(C)C)NC(=O)[C@H](C)N(C)C(=O)[C@H](C(C)C)NC(=O)[C@H](Cc3ccc(-c4ccccc4)cc3)NC(=O)[C@H](CC(C)C)NC2=O)c1` [Example 1016] ({CH2CO}-Y(Carboxymethyl)[4Pal]D[Phe(3-Me)]L[Bip]V[NMeA][dL]NLVSCG[γGlu][AEEA][γGlu][AEEA][Aun]-OH; thioether N-14): the IC50 came to 29.8 nM.

The experiment is the same for the next values; noted with them: PE-labeled PD-L1-Ig 20 nM final, Jurkat-hPD-1 cells; read-out: Jurkat HPD1 PDL1 IC50.
Regarding `CC(=O)NCCCC[C@@H]1NC(=O)[C@H](C(C)(C)O)NC(=O)[C@H](CC2CCCCC2)NC(=O)[C@H](CCN)NC(=O)[C@@H](CC(C)C)NC(=O)[C@H](C)N(C)C(=O)[C@H](Cc2ccc(C(=O)O)cc2)NC(=O)[C@H](Cc2ccc(-c3ccccc3)cc2)NC(=O)[C@H](Cc2ccc(C(=O)O)cc2)NC(=O)[C@H](Cc2cccc(C)c2)NC(=O)[C@H](CC(=O)O)NC(=O)[C@H](Cc2ccc(OCC(=O)O)cc2)NC(=O)[C@H](C(C)O)NC(=O)CSC[C@@H](C(=O)N[C@@H](CCN)C(=O)NCCOCCOCC(=O)N[C@@H](CCC(=O)NCCCCCCCCCCCCC(=O)O)C(=O)O)NC1=O` (mixture of isomers) [Example 2659], the IC50 amounted to 11.4 nM.

Source of the values: US20260070945A1, “MACROCYCLIC IMMUNOMODULATORS” (Bristol-Myers Squibb Company, priority 2022, published 2026).
